Measurements reported in US20050106729A1, “Gene transfer methods and compositions” (priority 2002, published 2005).

System: MMP-7 deficient corneal epithelial cells co-infected with CFB-EGSH-MMP-7 and FB-ERV retroviruses (ecdysone receptor)
Test: Ponasterone A induction of MMP-7 expression in co-infected corneal epithelial cells (immunohistochemistry)
Format: cell-based, mouse
Conditions: 10 μM ponasterone A; two days after induction; induced vs non-induced infected cells
Source text: A cDNA encoding mouse pro matrix metalloproteinase-7 (MMP-7) was obtained from the I.M.A.G.E. clone consortium. Using a PCR-based cloning strategy, the cDNA was inserted into the multiple cloning site of pCFP-EGSH (a plasmid vector including retroviral packaging signals and a multiple cloning site downstream of an ecdysone hormone receptor responsive promoter) to make plasmid pCFB-EGSH-MMP-7. A second plasmid used in these experiments was pFB-ERV, a plasmid vector with retroviral packaging signals, and expressing the constituents of functional ecdysone hormone receptors capable of binding ponasterone A and activating the ecdysone responsive promoter in pCFP-EGSH.
Replication deficient retroviral supematants from pCGB-EGSH-MMP-7 and […] were produced separately. The plasmid for pCFB-EGSH-MMP-7 or pFB-EGSH was co-transfected using a liposomal method into HEK293 cells along with the plasmids pEnv (expressing a retroviral ecotropic envelope protein) and pGag-Pol (expressing the gag and pol genes required for assembly of infectious retroviral particles). […]
MMP-7 deficient corneal epithelial cells co-infected with CFB-EGSH-MMP-7 and FB-ERV replication deficient retroviruses were induced with 10 μM ponasterone A. an ecdysone analog and a ligand for the ecdysone receptor. […] Immunolocalization was determined using epifluorescence microscopy.

CC(C)CC[C@@H](O)[C@](C)(O)[C@H]1CC[C@@]2(O)C3=CC(=O)[C@@H]4C[C@@H](O)[C@@H](O)C[C@]4(C)[C@H]3CC[C@]12C [ponasterone A]
Expression of MMP-7 (immunolocalization, epifluorescence microscopy): Expression of MMP-7 was seen only in infected epithelial cells induced with ponasterone A
